From US8192962B2, “Processes for detecting toxic substances” (Daikin Industries, Ltd., priority 2001, dated 2012)

Tested on: Unknown protein yeast genes
Experiment: DNA chip mRNA expression in yeast, unknown protein yeast genes (Table 1)
Format: cell-based, Saccharomyces cerevisiae S288C
Outline: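 Expression change after 2 h toxicant exposure (growth-inhibiting, sub-lethal) of log-phase S. cerevisiae S288C at 25° C. Oligo-dT-purified mRNA was labeled with Cy3-dUTP or Cy5-dUTP and hybridized >12 h at 65° C. to a genome-wide chip; ratio of scanned fluorescence to control.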

SMILES: Oc1cc(Cl)c(Cl)cc1Cl [(6), 2,4,5-trichlorophenol]
- The level of expressed mRNA in the presence of chemical substance/The level of expressed mRNA in the absence of chemical substance (yeast gene YAL053W, incubated two hours with chemical substance): 1.1
- The level of expressed mRNA in the presence of chemical substance/The level of expressed mRNA in the absence of chemical substance (yeast gene YBL048W): 2.0
- The level of expressed mRNA in the presence of chemical substance/The level of expressed mRNA in the absence of chemical substance (yeast gene YBL107C): 1.1
- The level of expressed mRNA in the presence of chemical substance/The level of expressed mRNA in the absence of chemical substance (yeast gene YDL072C, incubated two hours with chemical substance): 1.5
- The level of expressed mRNA in the presence of chemical substance/The level of expressed mRNA in the absence of chemical substance (yeast gene YDL146W): 0.7
- The level of expressed mRNA in the presence of chemical substance/The level of expressed mRNA in the absence of chemical substance (yeast gene YDL204W, incubated two hours with chemical substance): 5.6
- The level of expressed mRNA in the presence of chemical substance/The level of expressed mRNA in the absence of chemical substance (yeast gene YDL222C, incubated two hours with chemical substance): 1.4
- The level of expressed mRNA in the presence of chemical substance/The level of expressed mRNA in the absence of chemical substance (yeast gene YDR057W): 0.7
- The level of expressed mRNA in the presence of chemical substance/The level of expressed mRNA in the absence of chemical substance (yeast gene YDR330W, incubated two hours with chemical substance): 2.3
- The level of expressed mRNA in the presence of chemical substance/The level of expressed mRNA in the absence of chemical substance (yeast gene YDR411C, incubated two hours with chemical substance): 0.8
- The level of expressed mRNA in the presence of chemical substance/The level of expressed mRNA in the absence of chemical substance (yeast gene YDR476C): 3.1
- The level of expressed mRNA in the presence of chemical substance/The level of expressed mRNA in the absence of chemical substance (yeast gene YDR511W, incubated two hours with chemical substance): 2.0
- The level of expressed mRNA in the presence of chemical substance/The level of expressed mRNA in the absence of chemical substance (yeast gene YDR545W, incubated two hours with chemical substance): 1.0
- The level of expressed mRNA in the presence of chemical substance/The level of expressed mRNA in the absence of chemical substance (yeast gene YEL001C, incubated two hours with chemical substance): 1.3
- The level of expressed mRNA in the presence of chemical substance/The level of expressed mRNA in the absence of chemical substance (yeast gene YER004W, incubated two hours with chemical substance): 1.2
- The level of expressed mRNA in the presence of chemical substance/The level of expressed mRNA in the absence of chemical substance (yeast gene YER035W, incubated two hours with chemical substance): 0.9
- The level of expressed mRNA in the presence of chemical substance/The level of expressed mRNA in the absence of chemical substance (yeast gene YER079W, incubated two hours with chemical substance): 1.5
- The level of expressed mRNA in the presence of chemical substance/The level of expressed mRNA in the absence of chemical substance (yeast gene YER106W, incubated two hours with chemical substance): 1.1
- The level of expressed mRNA in the presence of chemical substance/The level of expressed mRNA in the absence of chemical substance (yeast gene YER158C, incubated two hours with chemical substance): 0.7
- The level of expressed mRNA in the presence of chemical substance/The level of expressed mRNA in the absence of chemical substance (yeast gene YER163C, incubated two hours with chemical substance): 2.0
- The level of expressed mRNA in the presence of chemical substance/The level of expressed mRNA in the absence of chemical substance (yeast gene YER175C, incubated two hours with chemical substance): 0.8
- The level of expressed mRNA in the presence of chemical substance/The level of expressed mRNA in the absence of chemical substance (yeast gene YFL006W, incubated two hours with chemical substance): 1.2
- The level of expressed mRNA in the presence of chemical substance/The level of expressed mRNA in the absence of chemical substance (yeast gene YFL010C, incubated two hours with chemical substance): 1.9
- The level of expressed mRNA in the presence of chemical substance/The level of expressed mRNA in the absence of chemical substance (yeast gene YFL024C): 2.0
- The level of expressed mRNA in the presence of chemical substance/The level of expressed mRNA in the absence of chemical substance (yeast gene YFL032W, incubated two hours with chemical substance): 0.6
- The level of expressed mRNA in the presence of chemical substance/The level of expressed mRNA in the absence of chemical substance (yeast gene YFL046W): 0.7
- The level of expressed mRNA in the presence of chemical substance/The level of expressed mRNA in the absence of chemical substance (yeast gene YGL037C, incubated two hours with chemical substance): 1.3
- The level of expressed mRNA in the presence of chemical substance/The level of expressed mRNA in the absence of chemical substance (yeast gene YGL047W, incubated two hours with chemical substance): 1.5
- The level of expressed mRNA in the presence of chemical substance/The level of expressed mRNA in the absence of chemical substance (yeast gene YGL053W, incubated two hours with chemical substance): 2.7
- The level of expressed mRNA in the presence of chemical substance/The level of expressed mRNA in the absence of chemical substance (yeast gene YGL059W): 0.7
- The level of expressed mRNA in the presence of chemical substance/The level of expressed mRNA in the absence of chemical substance (yeast gene YGL121C): 9.8
- The level of expressed mRNA in the presence of chemical substance/The level of expressed mRNA in the absence of chemical substance (yeast gene YGL199C, incubated two hours with chemical substance): 0.7
- The level of expressed mRNA in the presence of chemical substance/The level of expressed mRNA in the absence of chemical substance (yeast gene YGR024C): 0.7
- The level of expressed mRNA in the presence of chemical substance/The level of expressed mRNA in the absence of chemical substance (yeast gene YGR101W, incubated two hours with chemical substance): 0.9
- The level of expressed mRNA in the presence of chemical substance/The level of expressed mRNA in the absence of chemical substance (yeast gene YGR110W): 0.9
- The level of expressed mRNA in the presence of chemical substance/The level of expressed mRNA in the absence of chemical substance (yeast gene YGR130C, incubated two hours with chemical substance): 0.9
- The level of expressed mRNA in the presence of chemical substance/The level of expressed mRNA in the absence of chemical substance (yeast gene YGR154C, incubated two hours with chemical substance): 1.4
- The level of expressed mRNA in the presence of chemical substance/The level of expressed mRNA in the absence of chemical substance (yeast gene YGR221C, incubated two hours with chemical substance): 3.0
- The level of expressed mRNA in the presence of chemical substance/The level of expressed mRNA in the absence of chemical substance (yeast gene YHL042W): 0.7
- The level of expressed mRNA in the presence of chemical substance/The level of expressed mRNA in the absence of chemical substance (yeast gene YHR029C): 2.7
- The level of expressed mRNA in the presence of chemical substance/The level of expressed mRNA in the absence of chemical substance (yeast gene YHR138C, incubated two hours with chemical substance): 3.8
- The level of expressed mRNA in the presence of chemical substance/The level of expressed mRNA in the absence of chemical substance (yeast gene YHR199C, incubated two hours with chemical substance): 1.1
- The level of expressed mRNA in the presence of chemical substance/The level of expressed mRNA in the absence of chemical substance (yeast gene YIL023C, incubated two hours with chemical substance): 0.9
- The level of expressed mRNA in the presence of chemical substance/The level of expressed mRNA in the absence of chemical substance (yeast gene YIL041W, incubated two hours with chemical substance): 1.0
- The level of expressed mRNA in the presence of chemical substance/The level of expressed mRNA in the absence of chemical substance (yeast gene YIL087C, incubated two hours with chemical substance): 4.1
- The level of expressed mRNA in the presence of chemical substance/The level of expressed mRNA in the absence of chemical substance (yeast gene YJL057C, incubated two hours with chemical substance): 1.4
- The level of expressed mRNA in the presence of chemical substance/The level of expressed mRNA in the absence of chemical substance (yeast gene YJL066C, incubated two hours with chemical substance): 1.4
- The level of expressed mRNA in the presence of chemical substance/The level of expressed mRNA in the absence of chemical substance (yeast gene YJL082W, incubated two hours with chemical substance): 0.2
- The level of expressed mRNA in the presence of chemical substance/The level of expressed mRNA in the absence of chemical substance (yeast gene YJL144W): 1.7
- The level of expressed mRNA in the presence of chemical substance/The level of expressed mRNA in the absence of chemical substance (yeast gene YJL151C, incubated two hours with chemical substance): 2.2
- The level of expressed mRNA in the presence of chemical substance/The level of expressed mRNA in the absence of chemical substance (yeast gene YJL152W, incubated two hours with chemical substance): 1.5
- The level of expressed mRNA in the presence of chemical substance/The level of expressed mRNA in the absence of chemical substance (yeast gene YJL161W, incubated two hours with chemical substance): 8.0
- The level of expressed mRNA in the presence of chemical substance/The level of expressed mRNA in the absence of chemical substance (yeast gene YJL163C): 2.8
- The level of expressed mRNA in the presence of chemical substance/The level of expressed mRNA in the absence of chemical substance (yeast gene YJL171C, incubated two hours with chemical substance): 2.7
- The level of expressed mRNA in the presence of chemical substance/The level of expressed mRNA in the absence of chemical substance (yeast gene YJR008W, incubated two hours with chemical substance): 2.2
- The level of expressed mRNA in the presence of chemical substance/The level of expressed mRNA in the absence of chemical substance (yeast gene YJR054W, incubated two hours with chemical substance): 0.7
- The level of expressed mRNA in the presence of chemical substance/The level of expressed mRNA in the absence of chemical substance (yeast gene YKL071W): 18.6
